Data reported in patent publication US20020040062A1, “Protein kinase C activators and their use in decreasing expression of cell antigens” (The Trustees of Columbia University, priority 1993, published 2002).
Like-named read-outs stand apart in the source and are kept apart here. Marks after values point to notes of the source that are not given here.

B1: IFN-β: recombinant human fibroblast interferon with a serine substituted for a cysteine at position 17 (protein, UniProt P01574 22-187, looked up, variant C17S)
Interferon beta: MSYNLLGFLQRSSNFQSQKLLWQLNGRLEYCLKDRMNFDIPEEIKQLQQFQKEDAALTIYEMLQNIFAIFRQDSSSTGWNETIVENLLANVYHQINHLKTVLEEKLEKEDFTRGKLMSSLHLKRYYGRILHYLKAKEYSHCAWTIVRVEILRNFYFINRLTGYLRN
B2: IFN-γ: recombinant human immune interferon produced in Escherichia coli (protein, UniProt P01579 24-161, looked up)
Interferon gamma: QDPYVKEAENLKKYFNAGHSDVADNGTLFLGILKNWKEESDRKIMQSQIVSFYFKLFKNFKDDQSIQKSVETIKEDMNVKFFNSNKKKRDDFEKLTNYSVTDLNVQRKAIHELIQVMAELSPAAKTGKRKRSQMLFRG

Experiments:
[1] = tested on: HLA Class I; test: Northern blotting, steady-state HLA Class I mRNA in T47D cells; assay type: cell-based, human; details: 72 hr; for increase in HLA class I antigen mRNA levels: 500 units/ml IFN-α or IFN-β, 50 units/ml IFN-γ, 0.1 μg/ml TPA or MEZ, densitometry
Experimental: (§1) FIG. 3: Effect of interferon, ADMB, TPA and MEZ, alone and in combination with H-7, on steady-state mRNA levels of HLA Class I antigens, HLA Class II-DRβ antigen, c-erbB-2, ICAM-1 and GAPDH in T47D human breast carcinoma cells. […] Cultures were also grown in the presence of 0.1 μg/ml of H-7 for 72 hr with and without the additional compounds indicated above. Total cytoplasmic RNA was isolated and processed as described in “Detailed Description Of The Invention.” Control: CON; recombinant human leukocyte interferon-A: IFN-αA; recombinant human fibroblast interferon: IFN-β; recombinant human immune interferon: IFN-γ; ADMB; 3-(N-acetylamino)-5-(N-decyl-N-methylamino)-benzyl alcohol; TPA; 12-0-tetradecanoyl-phorbol-13-acetate; MEZ; mezerein; H-7: (1-(5-isoquinolinesulfonyl)-2-methylpiperazine dihydrochloride.
(§2) Steady-state levels of HLA Class I, HLA Class II-DRβ, c-erbB-2 and ICAM-I mRNA in control and treated T47D cells were determined by Northern blotting analysis of total cytoplasmic RNA probed with appropriate ^32P-labeled gene probes as previously described. Northern blots were also probed with a ^32P-labeled glyceraldehyde phosphate dehydrogenase (GAPDH) gene probe to verify equal […] under various experimental conditions. Following hybridization, the filters were washed and exposed for autoradiography.

[2] = tested on: T47D cells; test: Dose-range and time-course of antigenic enhancement in T47D cells and effect of H-7; assay type: cell-based, human
Experimental: T47D cells treated with the various compounds were analyzed by flow cytometry using appropriate monoclonal antibody concentrations as described previously. Briefly, 1×10^5 cells were incubated with the test antibody for 30 min at 4° C., washed 3× with PBS and incubated with a goat a mouse F (ab)2 FITC conjugated test antibody at a 1:40 dilution for 30 min at 4° C. Cells were then washed 3× with PBS and analyzed on a FACStar (Beckon Dickinson, Mountain View, Calif.) or a Coulter Epics IV FACS (Coulter, Hialeah, Fla.). Results are expressed as mean fluorescence intensity (MFI) units which were determined as described previously. MFI=(mean channel fluorescence in fluorescence positive antibody-binding cells×% of fluorescence positive antibody-binding cells)−(mean channel fluorescence in unstained cells×% of fluorescence positive cells in the unstained population). All studies were performed a minimum of three or four times with duplicate samples in each experiment.

[3] = tested on: HLA Class II-DRβ antigen mRNA; test: Northern blotting, steady-state HLA Class II-DRβ mRNA in T47D cells; assay type: cell-based, human; details: 72 hr, 500 units/ml IFN-α or IFN-β, 50 units/ml IFN-γ, 0.1 μg/ml TPA, MEZ or ADMB, densitometry
Experimental: as §1, §2

[4] = tested on: MoAb K56; test: FACS analysis of MoAb K56 binding in WiDr human colon carcinoma cells; assay type: cell-based
Experimental: (§3) Cells were plated in 10 cm plates, media was changed 24 hours later with no addition (control) or addition of the indicated compounds and cells were incubated at 37° C. for the indicated time (72 or 96 hours). Cells were resuspended using 10× EDTA and antigen expression was determined as described (Leon, Mesa-Tejada, Gutierrez, Estabrook, Greiner, Schlom & Fisher: Anticancer Res. 9:1639-1648, 1989; Leon, Gutierrez, Jiang, Estabrook, Waxman & Fisher: Cancer Immunol. Immmunother. 35:315-324, 1992).

[5] = tested on: CA19.9; test: FACS analysis of CA19.9 (MoAb B67.4) in WiDr human colon carcinoma cells; assay type: cell-based
Experimental: as §3

[6] = tested on: MoAb K56; test: FACS analysis of MoAb K56 binding in CBS human colon carcinoma cells; assay type: cell-based; details: 96 hours
Experimental: as §3, with “for” for “for the indicated time (72 or”, “hours.” for “hours).”, “Breiner,” for “Greiner,”, “Immuno. Immunother. 35:315-324” for “Immunol. Immmunother. 35:315-324,”

[7] = 72 Hour Treatment, ADMB 0.01 μg/ml
[8] = 72 Hour Treatment, ADMB 0.1 μg/ml
[9] = 72 Hour Treatment, ADMB 1.0 μg/ml
[10] = 96 Hour Treatment, ADMB 0.01 μg/ml
[11] = 96 Hour Treatment, ADMB 0.1 μg/ml
[12] = 96 Hour Treatment, ADMB 1.0 μg/ml
[13] = T47D cells, preliminary studies, data not shown
[14] = 72 Hour Treatment, MEZ 100 ng/ml, IFN-γ 100 U/ml
[15] = 96 Hour Treatment, MEZ 100 ng/ml, IFN-γ 100 U/ml

Row | Molecule | increase in HLA Class II-DR antigen mRNA levels [3] | most effective dose inducing upregulation of BCA 225, HLA Class II antigens, ICAM-1 and c-erbB-2 [2, 13] [µg/mL] | increase in HLA class I antigen mRNA levels [1] [fold] | Monoclonal Antibody Binding (MFI) MoAb K56 [4, 14] | Monoclonal Antibody Binding (MFI) MoAb K56 [4, 15] [MFI] | Monoclonal Antibody Binding (MFI) MoAb B67.4 (CA19.9) [5, 14] | Monoclonal Antibody Binding (MFI) MoAb B67.4 (CA19.9) [5, 15] | Monoclonal Antibody Binding (MFI) MoAb K56 ([6]; MEZ 1100 ng/ml, IFN-γ 100 U/ml) | other results
1 | CC1CNCCN1S(=O)(=O)c1cccc2cnccc12.Cl.Cl (stereo not shown) [H-7, 1-(5-isoquinolinesulfonyl)-2-methylpiperazine dihydrochloride] |  |  |  |  |  |  |  |  | alteration of HLA class I mRNA levels by H-7 ([1]; 0.1 μg/ml H-7): ≤ 1.2 fold; effect of H-7 on enhancement of BCA 225, HLA Class II antigens and ICAM-1 expression by IFN-β or IFN-γ ([2]; T47D cells, 1.0 μg/ml H-7): did not inhibit; effect of H-7 on increased antigenic expression induced by TPA, MEZ or ADMB ([2]; T47D cells, simultaneous exposure to 0.1 μg/ml H-7): inhibited
2 | CCCCCCCCCCN(C)c1cc(CO)cc(NC(C)=O)c1 [ADMB, 3-(N-acetylamino)-5-(N-decyl-N-methylamino)-benzyl alcohol] | did not increase | 0.1 |  |  |  |  |  |  | Monoclonal Antibody Binding (MFI) MoAb K56 [4, 7]: 844 MFI; Monoclonal Antibody Binding (MFI) MoAb K56 [4, 8]: 715 MFI; Monoclonal Antibody Binding (MFI) MoAb K56 [4, 9]: 879 MFI; Monoclonal Antibody Binding (MFI) MoAb K56 [4, 10]: 827 MFI; Monoclonal Antibody Binding (MFI) MoAb K56 [4, 11]: 1116 MFI; Monoclonal Antibody Binding (MFI) MoAb K56 [4, 12]: 1008 MFI; Monoclonal Antibody Binding (MFI) MoAb B67.4 (CA19.9) [5, 7]: 1136 MFI; Monoclonal Antibody Binding (MFI) MoAb B67.4 (CA19.9) [5, 8]: 1172 MFI; Monoclonal Antibody Binding (MFI) MoAb B67.4 (CA19.9) [5, 9]: 1400* MFI; Monoclonal Antibody Binding (MFI) MoAb B67.4 (CA19.9) [5, 10]: 1512 MFI; Monoclonal Antibody Binding (MFI) MoAb B67.4 (CA19.9) [5, 11]: 2028* MFI; Monoclonal Antibody Binding (MFI) MoAb B67.4 (CA19.9) [5, 12]: 2417* MFI; Monoclonal Antibody Binding (MFI) MoAb K56 ([6]; ADMB 0.01 μg/ml): 2126 MFI; Monoclonal Antibody Binding (MFI) MoAb K56 ([6]; ADMB 0.1 μg/ml): 1715 MFI; Monoclonal Antibody Binding (MFI) MoAb K56 ([6]; ADMB 1.0 g/ml): 2420 MFI
3 | CCCCCCCCCCCCCC(=O)O[C@@H]1[C@@H](C)[C@@]2(O)[C@@H](C=C(CO)C[C@]3(O)C(=O)C(C)=C[C@@H]23)[C@H]2C(C)(C)[C@]12OC(C)=O [TPA, 12-0-tetradecanoyl-phorbol-13-acetate] | did not increase |  | 1.3 |  |  |  |  |  | most effective dose inducing upregulation of BCA 225, HLA Class II antigens, ICAM-1 and c-erbB-2 [2]: 0.1 µg/mL
4 | C=C(C)[C@@]12O[C@@]3(c4ccccc4)O[C@@H]1[C@@H]1[C@@H]4O[C@]4(CO)[C@@H](O)[C@]4(O)C(=O)C(C)=C[C@H]4[C@@]1(O3)[C@H](C)[C@H]2OC(=O)/C=C/C=C/c1ccccc1 [MEZ, mezerein] | 1.2 fold | 0.1 | 1.75 | 964* MFI | 1104 | 1914* MFI | 4784* MFI | 3002* MFI | 
5 | B1 | 1.2 fold |  | 2.1 |  |  |  |  |  | 
6 | B2 | 1.25 fold |  | 1.8 | 1046* MFI | 1021 | 2271* MFI | 3191* MFI | 3126* MFI | 
